# What was measured:
# [1] = target: T1, Serine/threonine-protein kinase D3 (Homo sapiens) (UniProt O94806); assay: Selectivity interaction (Kinase screening (Nanosyn)) EUB0000604a PRKD3
# T1 sequence (whole entry): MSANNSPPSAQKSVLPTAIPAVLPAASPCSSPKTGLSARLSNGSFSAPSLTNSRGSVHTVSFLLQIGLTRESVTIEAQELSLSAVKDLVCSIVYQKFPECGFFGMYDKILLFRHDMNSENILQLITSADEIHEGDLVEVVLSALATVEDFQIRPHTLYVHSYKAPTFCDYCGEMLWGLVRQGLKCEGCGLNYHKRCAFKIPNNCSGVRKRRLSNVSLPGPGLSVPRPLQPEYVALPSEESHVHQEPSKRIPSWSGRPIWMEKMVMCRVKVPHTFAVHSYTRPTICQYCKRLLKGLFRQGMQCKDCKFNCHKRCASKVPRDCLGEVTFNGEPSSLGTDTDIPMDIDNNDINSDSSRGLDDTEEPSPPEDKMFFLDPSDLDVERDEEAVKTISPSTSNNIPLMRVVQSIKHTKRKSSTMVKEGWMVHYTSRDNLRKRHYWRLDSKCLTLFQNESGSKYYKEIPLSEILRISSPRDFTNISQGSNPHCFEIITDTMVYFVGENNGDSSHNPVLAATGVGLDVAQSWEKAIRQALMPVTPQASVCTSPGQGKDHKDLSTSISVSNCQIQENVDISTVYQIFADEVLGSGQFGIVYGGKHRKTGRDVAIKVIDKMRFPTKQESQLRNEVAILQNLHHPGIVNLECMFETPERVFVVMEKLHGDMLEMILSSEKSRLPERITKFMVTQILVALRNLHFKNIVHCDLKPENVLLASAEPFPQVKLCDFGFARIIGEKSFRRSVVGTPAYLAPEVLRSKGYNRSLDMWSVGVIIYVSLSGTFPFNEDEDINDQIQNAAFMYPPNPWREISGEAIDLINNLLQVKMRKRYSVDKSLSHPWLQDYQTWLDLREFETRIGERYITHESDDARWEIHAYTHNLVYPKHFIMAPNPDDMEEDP
# [2] = target: Ribosomal protein S6 kinase beta-1 (Homo sapiens, UniProt P23443); assay: Selectivity interaction (KinomeScan (DiscoverX)) EUB0001049a RPS6KB1; conditions: at 1 µM
# [3] = target: Dual specificity protein kinase CLK3 (Homo sapiens, UniProt P49761); assay: Selectivity interaction (Kinase panel (Invitrogen)) EUB0000639a CLK3; conditions: at 200 nM
# [4] = target: Tyrosine-protein kinase receptor Tie-1 (Homo sapiens) (UniProt P35590); conditions: at 10 µM
# [5] = Selectivity interaction (KinomeScan (DiscoverX)) EUB0000229b PKNB; conditions: at 1 µM
# [6] = system: Hepatocyte growth factor receptor (Homo sapiens), P08581 [Y1235D]; assay: (§1) Selectivity interaction (KinomeScan (DiscoverX)) EUB0000655a MET; conditions: at 10 µM
# [7] = system: Hepatocyte growth factor receptor (Homo sapiens), P08581 [M1250T]; assay: as §1; conditions: at 10 µM
# [8] = target: Hepatocyte growth factor receptor (Homo sapiens, UniProt P08581); assay: as §1; conditions: at 10 µM
# [9] = target: Non-receptor tyrosine-protein kinase TYK2 (Homo sapiens, UniProt P29597); assay: Selectivity interaction (KinomeScan (DiscoverX)) EUB0000618a TYK2; conditions: at 10 µM
# [10] = target: Mitogen-activated protein kinase 1 (Homo sapiens, UniProt P28482); assay: Selectivity interaction (Kinase panel (DSF assay)) EUB0001559a MAPK1
# [11] = target: T2, Serine/threonine-protein kinase RIO3 (Homo sapiens) (UniProt O14730); assay: Selectivity interaction (KinomeScan (DiscoverX)) EUB0000607a RIOK3; conditions: at 10 µM
# T2 sequence (whole entry): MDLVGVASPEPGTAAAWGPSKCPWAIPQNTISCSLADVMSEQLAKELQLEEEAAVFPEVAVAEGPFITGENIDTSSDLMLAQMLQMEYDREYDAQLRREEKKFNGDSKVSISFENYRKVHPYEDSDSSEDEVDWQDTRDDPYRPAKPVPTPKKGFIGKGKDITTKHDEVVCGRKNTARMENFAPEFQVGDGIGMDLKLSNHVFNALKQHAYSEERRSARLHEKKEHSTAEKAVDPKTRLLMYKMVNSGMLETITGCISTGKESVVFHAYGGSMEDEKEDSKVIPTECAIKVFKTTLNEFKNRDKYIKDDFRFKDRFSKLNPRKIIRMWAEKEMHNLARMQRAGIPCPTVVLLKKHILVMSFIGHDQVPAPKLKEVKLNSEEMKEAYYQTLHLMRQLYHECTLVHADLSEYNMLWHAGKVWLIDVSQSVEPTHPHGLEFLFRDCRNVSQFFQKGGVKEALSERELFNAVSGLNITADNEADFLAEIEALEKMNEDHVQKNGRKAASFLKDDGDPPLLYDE
# [12] = target: T3, Serine/threonine-protein kinase D2 (Homo sapiens) (UniProt Q9BZL6); assay: Selectivity interaction (KinomeScan (DiscoverX)) EUB0000607a PRKD2; conditions: at 10 µM
# T3 sequence (whole entry): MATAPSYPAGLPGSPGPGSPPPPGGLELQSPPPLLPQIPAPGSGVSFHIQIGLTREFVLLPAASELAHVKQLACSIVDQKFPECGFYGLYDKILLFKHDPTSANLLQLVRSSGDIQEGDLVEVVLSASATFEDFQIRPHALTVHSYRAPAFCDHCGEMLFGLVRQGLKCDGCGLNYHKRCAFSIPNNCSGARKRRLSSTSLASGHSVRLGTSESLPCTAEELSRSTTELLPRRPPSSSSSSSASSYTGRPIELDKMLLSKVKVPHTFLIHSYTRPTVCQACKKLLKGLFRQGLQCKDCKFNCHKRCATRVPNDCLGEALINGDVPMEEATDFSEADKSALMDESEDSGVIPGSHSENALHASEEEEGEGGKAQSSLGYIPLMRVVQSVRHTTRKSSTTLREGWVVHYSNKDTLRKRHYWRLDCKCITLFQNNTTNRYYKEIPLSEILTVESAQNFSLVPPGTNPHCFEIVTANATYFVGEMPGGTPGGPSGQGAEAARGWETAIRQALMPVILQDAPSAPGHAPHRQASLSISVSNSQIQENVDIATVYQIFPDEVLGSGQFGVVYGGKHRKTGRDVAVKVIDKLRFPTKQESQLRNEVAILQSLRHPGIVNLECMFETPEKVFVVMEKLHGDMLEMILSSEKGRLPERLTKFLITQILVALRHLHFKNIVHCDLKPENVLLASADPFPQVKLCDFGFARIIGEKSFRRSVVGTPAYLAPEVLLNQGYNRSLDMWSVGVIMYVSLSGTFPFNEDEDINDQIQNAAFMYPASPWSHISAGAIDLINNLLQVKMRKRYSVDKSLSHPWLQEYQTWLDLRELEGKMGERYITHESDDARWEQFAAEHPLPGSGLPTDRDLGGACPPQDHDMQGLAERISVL
# [13] = target: Cyclin-dependent kinase 9 (Homo sapiens, UniProt P50750); assay: Selectivity interaction (SelectScreen Kinase Profiling (Thermo Fisher Scientific)) EUB0001558a CDK9; conditions: at 1 µM
# Cyclin-dependent kinase 9, sequence (P50750 whole entry): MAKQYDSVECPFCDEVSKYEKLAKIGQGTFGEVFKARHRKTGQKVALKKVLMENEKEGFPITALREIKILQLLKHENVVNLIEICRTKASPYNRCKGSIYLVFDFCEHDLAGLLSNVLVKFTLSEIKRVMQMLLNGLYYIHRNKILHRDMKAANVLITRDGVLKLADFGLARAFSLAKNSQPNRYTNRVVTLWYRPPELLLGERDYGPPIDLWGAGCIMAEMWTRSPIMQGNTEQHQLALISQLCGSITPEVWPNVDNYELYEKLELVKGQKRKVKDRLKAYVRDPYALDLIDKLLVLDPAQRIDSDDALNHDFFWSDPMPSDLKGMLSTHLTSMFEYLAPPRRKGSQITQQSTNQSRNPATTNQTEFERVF
# Hepatocyte growth factor receptor (Homo sapiens), P08581 [M1250T], sequence (P08581 whole entry M1250T): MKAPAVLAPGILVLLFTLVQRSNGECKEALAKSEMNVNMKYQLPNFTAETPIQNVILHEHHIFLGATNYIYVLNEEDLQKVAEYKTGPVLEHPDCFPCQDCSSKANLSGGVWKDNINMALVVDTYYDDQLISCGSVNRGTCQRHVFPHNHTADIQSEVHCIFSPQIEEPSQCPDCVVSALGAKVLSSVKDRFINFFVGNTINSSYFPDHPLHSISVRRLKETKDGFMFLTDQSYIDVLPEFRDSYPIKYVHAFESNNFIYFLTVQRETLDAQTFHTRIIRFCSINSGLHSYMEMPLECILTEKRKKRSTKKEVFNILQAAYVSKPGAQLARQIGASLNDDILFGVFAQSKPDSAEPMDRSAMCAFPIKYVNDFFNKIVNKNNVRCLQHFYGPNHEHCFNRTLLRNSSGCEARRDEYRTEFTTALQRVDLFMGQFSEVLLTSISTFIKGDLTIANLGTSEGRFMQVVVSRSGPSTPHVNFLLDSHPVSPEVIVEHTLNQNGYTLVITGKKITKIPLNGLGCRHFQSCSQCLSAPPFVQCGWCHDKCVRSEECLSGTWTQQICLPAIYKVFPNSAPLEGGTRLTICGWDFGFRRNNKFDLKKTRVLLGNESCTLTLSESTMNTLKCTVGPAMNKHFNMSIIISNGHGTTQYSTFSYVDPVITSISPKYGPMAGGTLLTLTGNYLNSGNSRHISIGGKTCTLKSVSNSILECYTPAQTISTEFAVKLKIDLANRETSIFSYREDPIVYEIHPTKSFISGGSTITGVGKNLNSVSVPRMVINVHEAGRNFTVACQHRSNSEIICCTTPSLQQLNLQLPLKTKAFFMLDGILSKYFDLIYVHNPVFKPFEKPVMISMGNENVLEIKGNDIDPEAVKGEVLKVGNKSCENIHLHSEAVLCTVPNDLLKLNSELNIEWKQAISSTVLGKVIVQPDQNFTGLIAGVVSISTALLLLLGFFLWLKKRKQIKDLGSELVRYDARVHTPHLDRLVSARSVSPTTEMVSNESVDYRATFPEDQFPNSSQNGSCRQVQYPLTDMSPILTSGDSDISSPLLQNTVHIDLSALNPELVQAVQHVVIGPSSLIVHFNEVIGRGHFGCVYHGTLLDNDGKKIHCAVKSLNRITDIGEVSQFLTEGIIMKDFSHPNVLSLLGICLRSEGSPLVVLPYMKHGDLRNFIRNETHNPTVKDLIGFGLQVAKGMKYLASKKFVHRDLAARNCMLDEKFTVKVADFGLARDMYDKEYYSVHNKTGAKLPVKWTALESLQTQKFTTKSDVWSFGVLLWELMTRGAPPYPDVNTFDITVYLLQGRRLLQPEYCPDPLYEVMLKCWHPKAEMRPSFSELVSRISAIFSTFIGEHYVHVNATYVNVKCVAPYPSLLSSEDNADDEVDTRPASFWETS
# Ribosomal protein S6 kinase beta-1, sequence (P23443 whole entry, looked up): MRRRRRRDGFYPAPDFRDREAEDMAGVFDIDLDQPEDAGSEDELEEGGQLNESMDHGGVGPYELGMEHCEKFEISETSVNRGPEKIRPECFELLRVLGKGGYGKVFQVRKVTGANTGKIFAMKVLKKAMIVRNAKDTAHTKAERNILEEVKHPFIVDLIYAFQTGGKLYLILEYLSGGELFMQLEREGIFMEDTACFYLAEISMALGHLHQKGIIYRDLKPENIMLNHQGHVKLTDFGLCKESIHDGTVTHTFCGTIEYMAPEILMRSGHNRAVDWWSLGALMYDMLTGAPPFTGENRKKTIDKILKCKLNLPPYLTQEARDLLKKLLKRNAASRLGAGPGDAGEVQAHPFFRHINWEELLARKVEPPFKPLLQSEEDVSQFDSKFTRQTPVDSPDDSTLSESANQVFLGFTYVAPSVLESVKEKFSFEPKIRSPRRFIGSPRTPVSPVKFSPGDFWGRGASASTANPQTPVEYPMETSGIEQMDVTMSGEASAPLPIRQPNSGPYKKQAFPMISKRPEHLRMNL
# Hepatocyte growth factor receptor, sequence (P08581 whole entry): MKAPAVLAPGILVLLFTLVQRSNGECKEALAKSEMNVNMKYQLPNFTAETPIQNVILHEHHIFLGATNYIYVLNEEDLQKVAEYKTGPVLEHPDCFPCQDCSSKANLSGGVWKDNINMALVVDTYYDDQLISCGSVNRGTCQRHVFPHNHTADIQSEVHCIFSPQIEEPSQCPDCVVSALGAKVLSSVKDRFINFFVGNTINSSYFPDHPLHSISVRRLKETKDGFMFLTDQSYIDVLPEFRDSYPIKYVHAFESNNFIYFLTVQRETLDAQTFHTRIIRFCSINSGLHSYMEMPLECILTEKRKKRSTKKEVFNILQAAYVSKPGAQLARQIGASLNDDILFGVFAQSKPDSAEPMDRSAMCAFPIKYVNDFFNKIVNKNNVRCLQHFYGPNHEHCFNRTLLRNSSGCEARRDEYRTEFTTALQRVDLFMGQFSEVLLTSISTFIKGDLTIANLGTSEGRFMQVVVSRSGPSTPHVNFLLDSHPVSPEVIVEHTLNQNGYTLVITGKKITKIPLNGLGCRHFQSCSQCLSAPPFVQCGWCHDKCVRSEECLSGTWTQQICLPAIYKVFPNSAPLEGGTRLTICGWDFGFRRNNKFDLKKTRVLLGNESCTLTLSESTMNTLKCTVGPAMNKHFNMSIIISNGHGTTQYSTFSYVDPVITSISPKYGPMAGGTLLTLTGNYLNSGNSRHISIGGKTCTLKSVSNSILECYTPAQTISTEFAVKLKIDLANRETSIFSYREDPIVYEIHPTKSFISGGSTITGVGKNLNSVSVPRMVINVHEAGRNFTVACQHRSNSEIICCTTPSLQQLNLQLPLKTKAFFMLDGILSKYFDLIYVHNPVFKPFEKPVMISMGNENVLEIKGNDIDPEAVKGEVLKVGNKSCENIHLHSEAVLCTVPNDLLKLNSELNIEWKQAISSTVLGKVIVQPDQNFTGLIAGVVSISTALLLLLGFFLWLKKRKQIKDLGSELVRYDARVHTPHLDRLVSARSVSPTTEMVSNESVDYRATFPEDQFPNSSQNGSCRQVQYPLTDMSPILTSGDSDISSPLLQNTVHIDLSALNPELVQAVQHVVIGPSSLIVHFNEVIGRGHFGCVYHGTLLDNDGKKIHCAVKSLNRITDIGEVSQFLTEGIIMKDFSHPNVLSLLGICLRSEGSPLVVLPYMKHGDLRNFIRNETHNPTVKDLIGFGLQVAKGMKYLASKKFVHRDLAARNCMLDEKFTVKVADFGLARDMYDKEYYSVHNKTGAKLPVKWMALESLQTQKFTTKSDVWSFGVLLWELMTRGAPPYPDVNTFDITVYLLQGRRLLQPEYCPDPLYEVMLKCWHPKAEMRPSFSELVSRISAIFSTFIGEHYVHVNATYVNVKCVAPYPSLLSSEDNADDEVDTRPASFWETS
# Tyrosine-protein kinase receptor Tie-1 (Homo sapiens), sequence (P35590 whole entry): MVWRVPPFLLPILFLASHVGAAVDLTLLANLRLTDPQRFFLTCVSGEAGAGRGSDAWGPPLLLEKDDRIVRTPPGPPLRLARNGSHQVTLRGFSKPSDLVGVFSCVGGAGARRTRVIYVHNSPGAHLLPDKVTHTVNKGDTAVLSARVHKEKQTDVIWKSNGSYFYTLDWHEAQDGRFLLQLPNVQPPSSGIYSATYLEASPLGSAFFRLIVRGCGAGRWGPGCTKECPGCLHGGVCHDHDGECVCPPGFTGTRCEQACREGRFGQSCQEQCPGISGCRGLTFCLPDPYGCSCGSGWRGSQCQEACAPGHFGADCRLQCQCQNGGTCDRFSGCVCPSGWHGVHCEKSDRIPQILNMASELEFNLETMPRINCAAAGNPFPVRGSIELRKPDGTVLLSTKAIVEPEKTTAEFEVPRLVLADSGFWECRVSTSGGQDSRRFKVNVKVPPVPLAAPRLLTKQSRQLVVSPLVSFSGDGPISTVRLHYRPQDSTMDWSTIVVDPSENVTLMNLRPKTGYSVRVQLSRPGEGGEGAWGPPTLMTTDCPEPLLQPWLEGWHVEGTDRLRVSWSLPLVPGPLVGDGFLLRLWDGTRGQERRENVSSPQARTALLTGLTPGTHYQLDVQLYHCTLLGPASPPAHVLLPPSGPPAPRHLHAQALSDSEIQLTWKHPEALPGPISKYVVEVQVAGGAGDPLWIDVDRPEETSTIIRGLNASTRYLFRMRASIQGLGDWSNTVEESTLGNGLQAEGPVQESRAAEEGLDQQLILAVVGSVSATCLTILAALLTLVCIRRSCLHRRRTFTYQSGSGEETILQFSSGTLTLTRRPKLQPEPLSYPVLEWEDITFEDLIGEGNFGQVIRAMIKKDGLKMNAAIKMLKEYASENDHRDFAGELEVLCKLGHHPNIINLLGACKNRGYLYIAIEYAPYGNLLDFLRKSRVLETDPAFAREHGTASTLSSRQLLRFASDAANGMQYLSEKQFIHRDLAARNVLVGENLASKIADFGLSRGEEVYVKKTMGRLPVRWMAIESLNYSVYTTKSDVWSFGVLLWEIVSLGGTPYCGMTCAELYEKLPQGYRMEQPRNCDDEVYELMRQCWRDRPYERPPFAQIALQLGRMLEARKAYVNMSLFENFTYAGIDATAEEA
compound,measurement,setting,value
Cc1cnc(Nc2ccc(F)cc2Cl)nc1-c1c[nH]c(C(=O)N[C@H](CO)c2cccc(Cl)c2)c1,% of inhibition,[1],21%
COc1cc(Nc2nc(C)cc(-c3cnn4nc(OC)ccc34)n2)cc(C(F)(F)F)c1,% of control,[2],87%
CC[C@@H]1[C@H](F)C(=O)N[C@@H]1COc1nccc2cc(C(N)=O)c(OC)cc12 [ZIMLOVISERTIB],% of inhibition,[3],8.76%
COCC(=O)NC/C=C/c1ccc2ncnc(Nc3ccc(Oc4ccc(C)nc4)c(C)c3)c2c1 [CP-724714],% of control,[4],100%
COc1cc(N(C)c2ccnc3ccc(C(F)(F)F)cc23)cc(OC)c1OC,% binding,[5],100%
CN(C)CCOc1ccc(-c2nc(-c3ccncc3)c(-c3ccc4c(c3)CC/C4=N\O)[nH]2)cc1,% of control,[6],64%
same,% of control,[7],64%
same,% of control,[8],50%
O[C@H]1CC[C@H](Nc2ncc3nc(Nc4c(F)cc(F)cc4F)n([C@H]4CCOC4)c3n2)CC1,% of control,[9],81%
CN(C(=O)c1cnn2cccnc12)c1cc2c(cc1N1CCOCC1)C(=O)N(C[C@@H](F)C(C)(C)O)C2,dTM,[10],-1 K
CNC(=O)Nc1ccc(-c2nc(N3CC4CCC(C3)O4)c3cnn(C4CCC5(CC4)OCCO5)c3n2)cc1,% of control,[11],100%
same,% of control,[12],100%
CC(C)(O)[C@H](F)CN1Cc2cc(NC(=O)c3cnn4cccnc34)c(N3CCOCC3)cc2C1=O,% of inhibition,[13],74.5%

# From ChEMBL document CHEMBL5465560, “Selectivity Literature for EUbOPEN Chemogenomic Library” (2024)
